Patent publication US7989667B2, “Processes for the crystallization of 2,2,4,4-tetramethylcyclobutanediol” (Eastman Chemical Company, priority 2008, dated 2011)

What was measured:
[1] = Solubility of cis- and trans-2,2,4,4-tetramethylcyclobutanediol in isobutyl isobutyrate (GC of saturated liquid phase); type: physicochemical
Protocol: All of the solubility data and concentrations of cis and trans TMCD were measured by gas chromotography (GC) using an Agilent 6890GC instrument. The instrument was equipped with a split-splitless injector and flame ionization detection. The column is a DB®-Wax, 30 meter×0.25 mm ID, 0.50 μm film thickness column. The cis/trans ratio of the compositions was calculated from the respective concentrations.
The charge concentration of the isomers is expressed as weight % relative to the saturated concentration of each isomer at a temperature of 62.6° C.
The charge concentration of the isomers is expressed as weight % relative to the saturated concentration of each isomer at a temperature of 62.6° C. The vessel was equipped with a 4-blade flat blade pitched impeller for solids suspension, and the jacket was used to control the temperature of the vessel contents. The vessel was equipped with charging and sampling ports on top and a valve at the base to drain the vessel contents.
The slurry was allowed to stand for one hour sufficient for the solids to saturate the solvent at 6.4° C. At that time, a sample of the solution was drawn from the cell using a fritted pipette so as to remove only the liquid phase. The sample was analyzed for cis and trans isomer content. These values represented the saturated concentration of each isomer at the sampling temperature.
The cell contents were heated to 10.2° C. and the contents were held for a further hour to allow the slurry to equilibrate. A sample was then taken of the solution and analyzed. Following this procedure, data was gathered to 62.6° C.

[2] = Meta-stable zone width in isobutyl isobutyrate (colorimeter transmission on cooling from 90 to 10 °C); type: physicochemical; settings: for Limit of MZW / MZW (meta-stable zone width): isobutyl isobutyrate; for difference in onset of nucleation between repeated cool-downs: Experiments 3 and 4 of Table 2, same cooling rate 5 °C/hr; for Limit of Meta-Stable Zone Width: Table 1A, in isobutyl isobutyrate, data points shown in FIG. 7
Excerpt: The meta-stable zone width was estimated by charging 800 grams of a solution containing 100 relative weight % cis-2,2,4,4-tetramethylcyclobutanediol and 69 relative weight % trans-2,2,4,4-tetramethylcyclobutanediol in isobutyl isobutyrate solvent to a 1.2 L jacketed glass vessel. The vessel was equipped with a 4-blade flat blade pitched impeller for solids suspension, and the jacket was used to control the temperature of the vessel contents. The vessel was equipped with charging and sampling ports on top and a valve at the base to drain the vessel. The vessel contents were heated to 90° C., at which temperature both isomers were completely in solution.
All measurements to estimate the meta-stable zone width were made using a Beckmann Instruments PC 800 Colorimeter device. The device operated by transmitting a white light source into the solution which was reflected from a mirror at a distance of several millimeters from the source back to a detector in the probe. When no particles were present in suspension, most of the light was reflected back to the detector. If the solution was relatively transparent, some of the light was adsorbed by the solution and some was diffracted, but the majority was reflected. If crystals were present, a substantial quantity of the white light was adsorbed by the crystal mass and diffracted and less of the light was reflected back to the detector. In order to calibrate the instrument, a reference intensity was measured when no crystals were in suspension, and this was referred to as the 100% transmittance level.
The colorimeter was placed in the vessel such that the probe tip was submerged in the solution. The crystal free solution was cooled from 90° C. to 10° C. at a pre-determined cooling rate indicated in Table 2 and the magnitude of the transmission signal of the white light source monitored. When crystals appeared in solution, the white light source was blocked and the transmission/reflection decreased rapidly. Two distinct step changes in the transmission signal were observed indicating the nucleation of cis- and trans-2,2,4,4-tetramethylcyclobutanediol in suspension. FIG. 8 is a graph showing the solubility of cis-and trans-2,2,4,4-tetramethylcyclobutanediol in isobutyl isobutyrate and operating points for continuous crystallization.

[3] = Table 1A, in isobutyl isobutyrate, extrapolated from the data of FIG. 7
[4] = Table 2, solution in isobutyl isobutyrate used for MZW experiments 1-4
[5] = in isobutyl isobutyrate, 6.4 °C, wt % relative to saturated concentration of each isomer at 62.6 °C
[6] = in isobutyl isobutyrate, 10.2 °C, relative to saturated concentration at 62.6 °C
[7] = in isobutyl isobutyrate, 19 °C, relative to saturated concentration at 62.6 °C
[8] = in isobutyl isobutyrate, 26.2 °C, relative to saturated concentration at 62.6 °C
[9] = in isobutyl isobutyrate, 34.7 °C, relative to saturated concentration at 62.6 °C
[10] = in isobutyl isobutyrate, 39.6 °C, relative to saturated concentration at 62.6 °C
[11] = in isobutyl isobutyrate, 44.5 °C, relative to saturated concentration at 62.6 °C
[12] = in isobutyl isobutyrate, 51.6 °C, relative to saturated concentration at 62.6 °C
[13] = in isobutyl isobutyrate, 58.8 °C, relative to saturated concentration at 62.6 °C
[14] = in isobutyl isobutyrate, 62.6 °C (reference temperature)
[15] = Experiment 1, cooling rate 15 °C/hr
[16] = Experiment 2, cooling rate 10 °C/hr
[17] = Experiment 3, cooling rate 5 °C/hr
[18] = Experiment 4, cooling rate 5 °C/hr

In the case of CC1(C)[C@H](O)C(C)(C)[C@@H]1O [Cis-2,2,4,4-tetramethylcyclobutanediol, cis-2,2,4,4-tetramethylcyclobutanediol], the “Saturated Temperature” value [1, 3] is reported as 68 °C, the “Saturated Temperature” value [1, 4] is reported as 68 °C and the Solubility [1, 5] is reported as 0 Relative wt %. It also gave a Solubility [1, 6] of 3 Relative wt %, a Solubility [1, 7] of 10 Relative wt % and a Solubility [1, 8] of 17 Relative wt %. For the same compound, the Solubility [1, 9] was 29 Relative wt %, the Solubility [1, 10] was 37 Relative wt % and the Solubility [1, 11] was 47 Relative wt %. It also gave a Solubility [1, 12] of 64 Relative wt %, a Solubility [1, 13] of 86 Relative wt % and a Solubility [1, 14] of 100 Relative wt %. The “Limit of MZW” value [2, 15] was 50.94 °C, the “MZW (meta-stable zone width)” value [2, 15] was 17.06 °C and the “Limit of MZW” value [2, 16] was 51.77 °C. For the same compound, the “MZW (meta-stable zone width)” value [2, 16] was 16.23 °C, the “Limit of MZW” value [2, 17] was 60.38 °C and the “MZW (meta-stable zone width)” value [2, 17] was 7.62 °C. The “Limit of MZW” value [2, 18] was 58.24 °C, the “MZW (meta-stable zone width)” value [2, 18] was 9.76 °C and the “difference in onset of nucleation between repeated cool-downs” value [2] was “approximately 2 °C”. For the same compound, the “Limit of Meta-Stable Zone Width” value [2] was 58.24 °C.

In the case of CC1(C)[C@H](O)C(C)(C)[C@H]1O [Trans-2,2,4,4-tetramethylcyclobutanediol, trans-2,2,4,4-tetramethylcyclobutanediol], the “Saturated Temperature” value [1, 3] is reported as 57 °C, the “Saturated Temperature” value [1, 4] is reported as 57 °C and the Solubility [1, 5] is reported as 1 Relative wt %. It also gave a Solubility [1, 6] of 3 Relative wt %, a Solubility [1, 7] of 10 Relative wt % and a Solubility [1, 8] of 19 Relative wt %. For the same compound, the Solubility [1, 9] was 32 Relative wt %, the Solubility [1, 10] was 41 Relative wt % and the Solubility [1, 11] was 52 Relative wt %. For the same compound, the Solubility [1, 12] was 69 Relative wt %, the Solubility [1, 13] was 89 Relative wt % and the Solubility [1, 14] was 100 Relative wt %. The “Limit of MZW” value [2, 15] was 48.67 °C, the “MZW (meta-stable zone width)” value [2, 15] was 8.33 °C and the “Limit of MZW” value [2, 16] was 49.29 °C. For the same compound, the “MZW (meta-stable zone width)” value [2, 16] was 7.71 °C, the “Limit of MZW” value [2, 17] was 50.34 °C and the “MZW (meta-stable zone width)” value [2, 17] was 6.66 °C. For the same compound, the “Limit of MZW” value [2, 18] was 50.36 °C, the “MZW (meta-stable zone width)” value [2, 18] was 6.64 °C and the “difference in onset of nucleation between repeated cool-downs” value [2] was 0.02 °C. For the same compound, the “Limit of Meta-Stable Zone Width” value [2] was 50.36 °C.
